According to publication PMC5218480 (PLoS ONE, 2017):

System: MV-4-11 cells
Assay: Gene expression microarray analysis (Affymetrix PrimeView) and GSEA
Assay type: cell-based, human
Parameters: RFU PODN (11730768_x_at) / Fold change /veh PODN (11730768_x_at) / RFU LINC00158 (11744669_a_at) / Fold change /veh LINC00158 (11744669_a_at) / RFU DUSP10 (11751237_a_at) / Fold change /veh DUSP10 (11751237_a_at) / RFU ID3 (11757404_x_at) / Fold change /veh ID3 (11757404_x_at) / RFU PLEKHG5 (11737974_s_at) / Fold change /veh PLEKHG5 (11737974_s_at) / RFU LRRC4B (11730491_at) / Fold change /veh LRRC4B (11730491_at) / RFU GIMAP4 (11747438_a_at) / Fold change /veh GIMAP4 (11747438_a_at) / RFU KRT8 (11758183_x_at) / Fold change /veh KRT8 (11758183_x_at) / RFU CNN1 (11734310_a_at) / Fold change /veh CNN1 (11734310_a_at) / RFU VPS37D (11726825_at) / Fold change /veh VPS37D (11726825_at) / RFU C10orf10 (11716522_x_at) / Fold change /veh C10orf10 (11716522_x_at) / RFU KIR2DL2 /// KIR2DL4 /// KIR2DL5A /// KIR2DL5B /// KIR2DS1 /// KIR2DS2 /// KIR2DS3 /// KIR2DS4 /// KIR3DL3 /// KIR3DL3 /// KIR3DS1 (11738374_at) / Fold change /veh KIR2DL2 /// KIR2DL4 /// KIR2DL5A /// KIR2DL5B /// KIR2DS1 /// KIR2DS2 /// KIR2DS3 /// KIR2DS4 /// KIR3DL3 /// KIR3DL3 /// KIR3DS1 (11738374_at) / RFU C1QL1 (11718748_at) / Fold change /veh C1QL1 (11718748_at) / RFU TMPRSS4 (11747572_a_at) / Fold change /veh TMPRSS4 (11747572_a_at) / RFU HAMP (11756126_x_at) / Fold change /veh HAMP (11756126_x_at) / RFU RNFT2 (11725882_a_at) / Fold change /veh RNFT2 (11725882_a_at) / RFU NR4A2 (11747474_a_at) / Fold change /veh NR4A2 (11747474_a_at) / RFU ABCC12 (11746883_a_at) / Fold change /veh ABCC12 (11746883_a_at) / RFU TMEM136 (11760407_x_at) / Fold change /veh TMEM136 (11760407_x_at) / RFU CLDN22 /// WWC2 (11732394_at) / Fold change /veh CLDN22 /// WWC2 (11732394_at) / RFU HLA-DPB1 (11760878_x_at) / Fold change /veh HLA-DPB1 (11760878_x_at) / RFU SPINT1 (11716480_a_at) / Fold change /veh SPINT1 (11716480_a_at) / RFU GAP43 (11754022_s_at) / Fold change /veh GAP43 (11754022_s_at) / RFU A4GNT (11735810_at) / Fold change /veh A4GNT (11735810_at) / RFU PRB3 (11715151_x_at) / Fold change /veh PRB3 (11715151_x_at) / RFU TUBB4B (11761932_at) / Fold change /veh TUBB4B (11761932_at) / RFU CAPN14 (11732068_a_at) / Fold change /veh CAPN14 (11732068_a_at) / RFU TMCC2 (11721928_a_at) / Fold change /veh TMCC2 (11721928_a_at) / RFU IRGQ (11745062_a_at) / Fold change /veh IRGQ (11745062_a_at) / RFU FAM174B (11720279_a_at) / Fold change /veh FAM174B (11720279_a_at) / RFU TMPRSS4 (11748680_a_at) / Fold change /veh TMPRSS4 (11748680_a_at) / RFU FAM212B (11763350_a_at) / Fold change /veh FAM212B (11763350_a_at) / RFU PLEKHG5 (11743358_a_at) / Fold change /veh PLEKHG5 (11743358_a_at) / RFU ZSCAN30 (11745921_a_at) / Fold change /veh ZSCAN30 (11745921_a_at) / RFU CMKLR1 (11741424_a_at) / Fold change /veh CMKLR1 (11741424_a_at) / RFU LOC101060620 /// MAPK8IP1 (11723275_at) / Fold change /veh LOC101060620 /// MAPK8IP1 (11723275_at) / RFU SPTSSB (11747773_x_at) / Fold change /veh SPTSSB (11747773_x_at) / RFU PRSS12 (11739890_at) / Fold change /veh PRSS12 (11739890_at) / RFU BIN1 (11741810_x_at) / Fold change /veh BIN1 (11741810_x_at) / RFU WNT11 (11732464_a_at) / Fold change /veh WNT11 (11732464_a_at) / RFU C10orf10 (11716521_a_at) / Fold change /veh C10orf10 (11716521_a_at) / RFU C5orf56 (11738089_at) / Fold change /veh C5orf56 (11738089_at) / RFU CYB561 (11721691_x_at) / Fold change /veh CYB561 (11721691_x_at) / RFU ANKRD19P (11752326_a_at) / Fold change /veh ANKRD19P (11752326_a_at) / RFU OR2T12 /// OR2T33 /// OR2T8 (11738714_s_at) / Fold change /veh OR2T12 /// OR2T33 /// OR2T8 (11738714_s_at) / RFU VCAN (11748164_a_at) / Fold change /veh VCAN (11748164_a_at) / RFU JSRP1 (11732532_at) / Fold change /veh JSRP1 (11732532_at) / RFU KRTAP10-11 (11738290_x_at) / Fold change /veh KRTAP10-11 (11738290_x_at) / RFU MYO3A (11730013_a_at) / Fold change /veh MYO3A (11730013_a_at) / RFU EBF3 (11725865_a_at) / Fold change /veh EBF3 (11725865_a_at) / RFU CAMK2N1 (11719241_x_at) / Fold change /veh CAMK2N1 (11719241_x_at) / RFU C5orf56 (11738088_a_at) / Fold change /veh C5orf56 (11738088_a_at) / RFU OLFML3 (11715873_a_at) / Fold change /veh OLFML3 (11715873_a_at) / RFU LOC100653217 /// NTM (11731650_a_at) / Fold change /veh LOC100653217 /// NTM (11731650_a_at) / RFU MAPK11 (11762145_a_at) / Fold change /veh MAPK11 (11762145_a_at) / RFU FIZ1 (11724087_x_at) / Fold change /veh FIZ1 (11724087_x_at) / RFU OASL (11726364_x_at) / Fold change /veh OASL (11726364_x_at) / RFU SOX15 (11748057_x_at) / Fold change /veh SOX15 (11748057_x_at) / RFU CD79A (11719716_a_at) / Fold change /veh CD79A (11719716_a_at) / RFU HIST1H1D (11736915_at) / Fold change /veh HIST1H1D (11736915_at) / RFU CASKIN2 (11723855_a_at) / Fold change /veh CASKIN2 (11723855_a_at) / RFU LOC730098 (11760151_x_at) / Fold change /veh LOC730098 (11760151_x_at) / RFU OR4N2 (11742367_at) / Fold change /veh OR4N2 (11742367_at) / RFU PRRT2 (11749266_a_at) / Fold change /veh PRRT2 (11749266_a_at) / RFU SNX32 (11753110_a_at) / Fold change /veh SNX32 (11753110_a_at) / RFU CDHR5 (11726645_a_at) / Fold change /veh CDHR5 (11726645_a_at) / RFU RCAN1 (11760418_a_at) / Fold change /veh RCAN1 (11760418_a_at) / RFU FAM167A (11723789_a_at) / Fold change /veh FAM167A (11723789_a_at) / RFU FAM26E (11764081_at) / Fold change /veh FAM26E (11764081_at) / RFU ISYNA1 (11749810_s_at) / Fold change /veh ISYNA1 (11749810_s_at) / RFU ACY1 (11761880_at) / Fold change /veh ACY1 (11761880_at) / RFU 11764098_at / Fold change /veh 11764098_at / RFU SAMD14 (11745864_x_at) / Fold change /veh SAMD14 (11745864_x_at) / RFU NPB (11741838_a_at) / Fold change /veh NPB (11741838_a_at) / RFU TMPRSS6 (11731388_a_at) / Fold change /veh TMPRSS6 (11731388_a_at) / RFU KRTAP10-2 (11738614_at) / Fold change /veh KRTAP10-2 (11738614_at) / RFU ARHGAP8 /// PRR5-ARHGAP8 (11727945_x_at) / Fold change /veh ARHGAP8 /// PRR5-ARHGAP8 (11727945_x_at) / RFU KRTAP5-7 /// NADSYN1 (11734609_at) / Fold change /veh KRTAP5-7 /// NADSYN1 (11734609_at) / RFU RASL12 (11751679_a_at) / Fold change /veh RASL12 (11751679_a_at) / RFU CDKN2B (11736163_a_at) / Fold change /veh CDKN2B (11736163_a_at) / RFU PRF1 (11729649_at) / Fold change /veh PRF1 (11729649_at) / RFU, ZNF638 /// ZNF638-IT1 / Fold change vs veh, ZNF638 /// ZNF638-IT1 / RFU, PANK3 / Fold change vs veh, PANK3 / RFU, SH3YL1 / Fold change vs veh, SH3YL1 / RFU, ZEB2 / Fold change vs veh, ZEB2 / RFU, NRIP1 / Fold change vs veh, NRIP1 / RFU, PTTG1IP / Fold change vs veh, PTTG1IP / RFU, CAPN2 / Fold change vs veh, CAPN2 / RFU, MED14 / Fold change vs veh, MED14 / RFU, SNORA58 / Fold change vs veh, SNORA58 / RFU, C1orf63 / Fold change vs veh, C1orf63 / RFU, LRRFIP1 / Fold change vs veh, LRRFIP1 / RFU, NDUFAF7 / Fold change vs veh, NDUFAF7 / RFU, SLC12A2 / Fold change vs veh, SLC12A2 / RFU, IBTK / Fold change vs veh, IBTK / RFU, ESF1 / Fold change vs veh, ESF1 / Fold change vs veh, TMEM50B / RFU, TAOK1 / Fold change vs veh, TAOK1 / RFU, ACBD3 / Fold change vs veh, ACBD3 / RFU, TMA16 / Fold change vs veh, TMA16 / RFU, RWDD3 / Fold change vs veh, RWDD3 / RFU, BCAT1 / Fold change vs veh, BCAT1 / RFU, EDEM3 / Fold change vs veh, EDEM3 / RFU, TMEM33 / Fold change vs veh, TMEM33 / RFU, WDR75 / Fold change vs veh, WDR75 / RFU, AHCTF1 / Fold change vs veh, AHCTF1 / RFU, TFRC / Fold change vs veh, TFRC / RFU, ZDHHC17 / Fold change vs veh, ZDHHC17 / RFU, NOM1 / Fold change vs veh, NOM1 / RFU, ARL8B / Fold change vs veh, ARL8B / RFU, ZBTB11 / Fold change vs veh, ZBTB11 / RFU, TAMM41 / Fold change vs veh, TAMM41 / RFU, KIAA1704 /// LOC100996395 / Fold change vs veh, KIAA1704 /// LOC100996395 / RFU, ING1 / Fold change vs veh, ING1 / RFU, TRMT61B / Fold change vs veh, TRMT61B / RFU, FUBP3 / Fold change vs veh, FUBP3 / RFU, TP53 / Fold change vs veh, TP53 / RFU, TNKS2 / Fold change vs veh, TNKS2 / RFU, ZFP14 / Fold change vs veh, ZFP14 / RFU, ACTR2 / Fold change vs veh, ACTR2 / RFU, PPP3R1 / Fold change vs veh, PPP3R1 / RFU, PIK3R1 / Fold change vs veh, PIK3R1 / RFU, HNRNPA1 / Fold change vs veh, HNRNPA1 / RFU, RNF170 / Fold change vs veh, RNF170 / RFU, ZNF28 / Fold change vs veh, ZNF28 / RFU, RNGTT / Fold change vs veh, RNGTT / RFU, OGT / Fold change vs veh, OGT / RFU, BRD1 / Fold change vs veh, BRD1 / RFU, MARS / Fold change vs veh, MARS / RFU, ZNF655 / Fold change vs veh, ZNF655 / RFU, FAHD1 / Fold change vs veh, FAHD1 / RFU, BDP1 / Fold change vs veh, BDP1 / RFU, LRRCC1 / Fold change vs veh, LRRCC1 / RFU, ARID1A / Fold change vs veh, ARID1A / RFU, ZNF146 / Fold change vs veh, ZNF146 / RFU, ZNF330 / Fold change vs veh, ZNF330 / RFU, GPN3 / Fold change vs veh, GPN3 / RFU, C9orf123 / Fold change vs veh, C9orf123 / RFU, N4BP2L2 / Fold change vs veh, N4BP2L2 / RFU, ARFIP1 / Fold change vs veh, ARFIP1 / RFU, FAM179B / Fold change vs veh, FAM179B / RFU, BCL10 / Fold change vs veh, BCL10 / RFU, UHRF1BP1L / Fold change vs veh, UHRF1BP1L / RFU, BET1 / Fold change vs veh, BET1 / RFU, CNOT2 / Fold change vs veh, CNOT2 / RFU, ZNF268 / Fold change vs veh, ZNF268 / Fold change vs veh, ZNF507 / RFU, DGCR2 / Fold change vs veh, DGCR2 / RFU, WDSUB1 / Fold change vs veh, WDSUB1 / Fold change vs veh, HSP90B1 /// MIR3652 / RFU, ADSS / Fold change vs veh, ADSS / RFU, GK / Fold change vs veh, GK / RFU, ZNF148 / Fold change vs veh, ZNF148 / RFU, TAF9 / Fold change vs veh, TAF9 / RFU, SLC1A5 / Fold change vs veh, SLC1A5 / RFU, SLMO2 / Fold change vs veh, SLMO2 / RFU, ABCC4 / Fold change vs veh, ABCC4 / RFU, LOC101060439 /// RAP1B / Fold change vs veh, LOC101060439 /// RAP1B / RFU, RFX7 / Fold change vs veh, RFX7 / RFU, GTPBP10 / Fold change vs veh, GTPBP10 / RFU, CNEP1R1 / Fold change vs veh, CNEP1R1 / RFU, BIVM-ERCC5 /// ERCC5 / Fold change vs veh, BIVM-ERCC5 /// ERCC5 / RFU, ILF3 / Fold change vs veh, ILF3 / RFU 11762660_at / Fold change /veh 11762660_at / RFU VCAN (11757783_s_at) / Fold change /veh VCAN (11757783_s_at) / RFU DDX43 (11728927_at) / Fold change /veh DDX43 (11728927_at) / RFU KRT8 (11758188_x_at) / Fold change /veh KRT8 (11758188_x_at) / RFU NKD1 (11759106_at) / Fold change /veh NKD1 (11759106_at) / RFU SRD5A1 (11742802_a_at) / Fold change /veh SRD5A1 (11742802_a_at) / RFU TPSAB1 /// TPSB2 (11721975_s_at) / Fold change /veh TPSAB1 /// TPSB2 (11721975_s_at) / RFU GSTM3 (11746129_a_at) / Fold change /veh GSTM3 (11746129_a_at) / RFU IL23R (11737362_x_at) / Fold change /veh IL23R (11737362_x_at) / RFU TMEM51 (11727254_a_at) / Fold change /veh TMEM51 (11727254_a_at) / RFU PIWIL2 (11732686_x_at) / Fold change /veh PIWIL2 (11732686_x_at) / RFU ORM1 (11744905_x_at) / Fold change /veh ORM1 (11744905_x_at) / RFU CCDC152 (11743942_at) / Fold change /veh CCDC152 (11743942_at) / RFU ECM1 (11717891_a_at) / Fold change /veh ECM1 (11717891_a_at) / RFU IL23R (11748794_a_at) / Fold change /veh IL23R (11748794_a_at) / RFU TNFAIP8L3 (11732012_x_at) / Fold change /veh TNFAIP8L3 (11732012_x_at) / RFU MBOAT4 (11741988_at) / Fold change /veh MBOAT4 (11741988_at) / RFU 11764193_at / Fold change /veh 11764193_at / RFU TMEM53 (11763286_at) / Fold change /veh TMEM53 (11763286_at) / RFU MAGEB2 (11727129_at) / Fold change /veh MAGEB2 (11727129_at) / RFU TMEM200A (11744735_a_at) / Fold change /veh TMEM200A (11744735_a_at) / RFU CCDC152 (11751479_a_at) / Fold change /veh CCDC152 (11751479_a_at) / RFU FAM211A (11726209_a_at) / Fold change /veh FAM211A (11726209_a_at) / RFU RGS16 (11746705_a_at) / Fold change /veh RGS16 (11746705_a_at) / RFU VCAN (11755009_s_at) / Fold change /veh VCAN (11755009_s_at) / RFU RHOB (11743442_s_at) / Fold change /veh RHOB (11743442_s_at) / RFU RGS16 (11720943_a_at) / Fold change /veh RGS16 (11720943_a_at) / RFU RGS16 (11720944_at) / Fold change /veh RGS16 (11720944_at) / RFU, VPS4B / Fold change vs veh, VPS4B / RFU, CREB1 / Fold change vs veh, CREB1 / RFU, DNAJC13 / Fold change vs veh, DNAJC13 / RFU, GNAQ / Fold change vs veh, GNAQ / RFU, CDK5R1 / Fold change vs veh, CDK5R1 / RFU, ZRANB3 / Fold change vs veh, ZRANB3 / RFU, CUL4A / Fold change vs veh, CUL4A / RFU, CCNY / Fold change vs veh, CCNY / RFU, UFL1 / Fold change vs veh, UFL1 / RFU, COG3 / Fold change vs veh, COG3 / RFU, DIAPH2 / Fold change vs veh, DIAPH2 / RFU, SKA2 / Fold change vs veh, SKA2 / RFU, AFF3 / Fold change vs veh, AFF3 / RFU, LMF1 / Fold change vs veh, LMF1 / RFU, IPO11 / Fold change vs veh, IPO11 / RFU, DFFB / Fold change vs veh, DFFB / RFU, FOXP1 / Fold change vs veh, FOXP1 / RFU, CARD8 / Fold change vs veh, CARD8 / RFU, STRN3 / Fold change vs veh, STRN3 / RFU, ADK / Fold change vs veh, ADK / RFU, RASSF2 / Fold change vs veh, RASSF2 / RFU, WIPF1 / Fold change vs veh, WIPF1 / RFU, LARP1B / Fold change vs veh, LARP1B / RFU, RASA1 / Fold change vs veh, RASA1 / RFU, RB1 / Fold change vs veh, RB1 / RFU, PPFIA1 / Fold change vs veh, PPFIA1 / RFU, MAT2A / Fold change vs veh, MAT2A / RFU, CCT5 / Fold change vs veh, CCT5 / RFU, WDR92 / Fold change vs veh, WDR92 / RFU, CUX1 / Fold change vs veh, CUX1 / RFU, TTC7A / Fold change vs veh, TTC7A / RFU, TMEM135 / Fold change vs veh, TMEM135 / RFU, DEPTOR / Fold change vs veh, DEPTOR / RFU, CPM / Fold change vs veh, CPM / RFU, DNAJB6 / Fold change vs veh, DNAJB6 / RFU, CACNA2D3 / Fold change vs veh, CACNA2D3 / RFU, DTX4 / Fold change vs veh, DTX4 / RFU, TFCP2 / Fold change vs veh, TFCP2 / RFU, GMCL1 /// GMCL1P1 / Fold change vs veh, GMCL1 /// GMCL1P1 / RFU, AEBP2 / Fold change vs veh, AEBP2 / RFU, SNHG1 /// SNORD22 /// SNORD25 /// SNORD26 /// SNORD27 /// SNORD28 /// SNORD29 /// SNORD31 / Fold change vs veh, SNHG1 /// SNORD22 /// SNORD25 /// SNORD26 /// SNORD27 /// SNORD28 /// SNORD29 /// SNORD31 / Fold change (Aza/veh), C12orf56 (ProbeSet 11735607_a_at) / Fold change (ACY-1035/veh), C12orf56 (ProbeSet 11735607_a_at) / Fold change (Aza/veh), FGFR1OP (ProbeSet 11751329_s_at) / Fold change (ACY-1035/veh), FGFR1OP (ProbeSet 11751329_s_at) / Fold change (Aza/veh), VPS36 (ProbeSet 11739960_a_at) / Fold change (ACY-1035/veh), VPS36 (ProbeSet 11739960_a_at) / RFU SYPL1 (11715823_x_at) / Fold change /veh SYPL1 (11715823_x_at) / RFU IGFBP7 (11715501_s_at) / Fold change /veh IGFBP7 (11715501_s_at) / RFU REEP3 (11722064_at) / Fold change /veh REEP3 (11722064_at) / RFU IGLL1 (11728026_x_at) / Fold change /veh IGLL1 (11728026_x_at): dose or concentration left out as unconfirmed
Details: MV-4-11 cells, 48 hours

Nc1ccc(-c2cccs2)cc1NC(=O)c1ccc2c(c1)cc(C1CC1)n2CCN1CCOCC1 [ACY-1035]
Fold change /veh SOX15 (11748057_x_at): 0.91
